Experimental data reported in patent publication US20160272635A1, “SUBSTITUTED DIHYDROPYRIDO[3,4-B]PYRAZINONES AS DUAL INHIBITORS OF BET PROTEINS AND POLO-LIKE KINASES” (BAYER PHARMA AKTIENGESELLSCHAFT, priority 2013, published 2016).
pIC50: −log10 of the molar value. Read-outs that look alike come from different tables or passages of the source.

Tests used:
[1] = system: MOLM-13 cell line; experiment: MOLM-13 cell proliferation assay (alamarBlue); assay type: cell-based; conditions: Homo sapiens; MOLM-13 cells, 96 hours incubation, inhibition of cell proliferation
Protocol: In accordance with the invention, the substances were tested for their ability to inhibit the proliferation of the MOLM-13 cell linie (Deutsche Sammlung far Mikroorganismen and Zellkulturen [German Collection of Microorganisms and Cell Cultures], ACC 554). Cell viability was determined by means of the alamarBlue® reagent (Invitrogen) in a Victor X3 Multilabel Reader (Perkin Elmer). The excitation wavelength was 530 nm and the emission wavelength […].
The MOLM-13 cells were shown at a density of 4000 cells/well in 100 μl of growth medium on 96-well microtitre plates. After overnight incubation at 37° C., the fluorescence values (CI values) were determined. The plates were then treated with various substance dilutions and incubated at 37° C. for 96 hours. Subsequently, the fluorescence values were determined (CO values). For the data analysis, the CI values were subtracted from the CO values and the results were compared between cells which had been treated with various dilutions of the substance or only with buffer solution. The IC50 values (substance concentration needed for 50% inhibition of cell proliferation) were calculated therefrom.

[2] = biological target: T1, Plk-1 (Homo sapiens, UniProt P53350); experiment: Plk-1 enzyme assay (indirect HTRF kinase assay); assay type: biochemical
T1 construct: Recombinant fusion protein consisting of GST and Plk (kinase domain 33-345); MW 36 kDa; GST; made in house; host or cells: insect cells (Hi5)
T1 sequence (P53350 33-345): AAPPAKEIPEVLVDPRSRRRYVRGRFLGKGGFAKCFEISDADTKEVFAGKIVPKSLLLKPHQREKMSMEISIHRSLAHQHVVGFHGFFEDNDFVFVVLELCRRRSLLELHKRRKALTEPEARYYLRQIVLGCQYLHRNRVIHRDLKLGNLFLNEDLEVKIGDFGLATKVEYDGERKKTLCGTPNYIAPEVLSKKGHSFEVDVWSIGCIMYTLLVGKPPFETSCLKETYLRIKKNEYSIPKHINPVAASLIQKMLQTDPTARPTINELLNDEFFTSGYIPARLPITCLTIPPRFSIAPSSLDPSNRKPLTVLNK
Protocol: Recombinant fusion protein consisting of GST and Plk (kinase domain 33-345; MW 36 kDa, conc 0.8 μg/μl) expressed from insect cells (Hi5) and purified by glutathione Sepharose affinity chromatography and subsequent gel filtration (Superdex 75) is used for the kinase assay. Aliquots thereof are frozen in liquid nitrogen and stored at −80° C. and, after thawing, used only once.
The assay used is an indirect HTRF assay which employs the following materials and procedures. The substrate used for the kinase reaction is the biotinylated peptide Btn-Ahx-KKLNRTLSFAEPG-amide x TFA from Biosyntan, Sample No.: 6178.1 (C-terminus in amide form). This is an artificial sequence not derived from any known protein. 50 nl of the test compounds dissolved in 100% dimethyl sulphoxide (DMSO) (final concentrations: 0 μM and concentrations in the range of 0.001-20 μM) are pre-incubated with 2 μl Plk-1 enzyme working solution in working buffer [25 mM MgCl2; 1 mM DTT; 50 mM Hepes pH 7.0; 0.01% NP40; 1× Complete; 0.05% BSA] for 30 min. The kinase reaction is then initiated by addition of 3 μl of substrate solution [adenosine triphosphate (ATP) and 1.4 μM substrate peptide (biotin-Ttds-KKLNRTLSFAEPG-NH2)] in working buffer, and, after 30 min, stopped by addition of a stopper solution (100 mM EDTA, 100 mM Hepes pH 7.5, 800 mM potassium fluoride, 0.12% BSA, 0.4 μM SA-XLent (0.05 μM, from CIS bio international, Marcoule, France), Eu^3+ cryptate-conjugated rabbit anti-mouse IgG (1.5 nM; an anti-mouse IgG antibody labelled with europium cryptate from CIS bio international, Marcoule, France), 1 nM anti-phospho-serine kinase (a phospho-specific antibody from Upstate Biotechnology, Dundee, Scotland), and incubated at 4° C. overnight.
For the test at low ATP concentration, a 1.25 ng/μl Plk-1 working solution and 16.7 μM ATP are used, for the test at high ATP concentration, a 0.039 ng/μl Plk-1 working solution and 16.7 mM ATP are used.
The amount of phosphorylated substrate peptide is then determined by measuring the resonance energy transfer from europium-labelled antibody complex to streptavidine-XLent. To this end, the fluorescence emission at 620 nm and 665 nm is measured following excitation at 350 nm in an HTRF measuring instrument, e.g. Rubystar (BMG Labtechnologies, Offenburg, Germany) or Viewlux (Perkin-Elmer). The ratio of the emissions at 665 nm and at 620 nm is taken as a measure of the amount of phosphorylated substrate peptide. The data are normalized (enzyme reaction without inhibitor=0% inhibition, all other assay components, but no enzyme=100% inhibition), and IC50 values are calculated using a 4 parameter equation (minimum, maximum, IC50, Hill; Y=max+(min−max)/(1+(X/IC50)Hill)).

[3] = biological target: T2, BRD4 bromo domain 1 [BRD4(1)] (Homo sapiens, UniProt O60885); experiment: BRD4(1)/acetylated peptide H4 binding assay (TR-FRET); conditions: inhibition of interaction between BRD4(1) and acetylated histone H4 peptide
T2 construct: N-terminally His6-tagged BRD4(1) (amino acids 67-152); made in house; host or cells: E. coli
Excerpt: To assess the BRD4(1) binding strength of the substances described in this application, the ability thereof to inhibit the interaction between BRD4(1) and acetylated histone H4 in a dose-dependent manner was quantified.
For this purpose, a time-resolved fluorescence resonance energy transfer (TR-FRET) assay was used, which measures the binding between N-terminally His6-tagged BRD4(1) (amino acids 67-152) and a synthetic acetylated histone H4 (Ac-H4) peptide with sequence GRGK(Ac)GGK(Ac)GLGK(Ac)GGAK(Ac)RHGSGSK-biotin. The recombinant BRD4(1) protein produced in-house according to Filippakopoulos et al., Cell, 2012, 149:214-231 was expressed in E. coli and purified by means of (Ni-NTA) affinity and (Sephadex G-75) size exclusion chromatography. The Ac-H4 peptide can be purchased, for example, from Biosyntan (Berlin, Germany).
In the assay, typically 11 different concentrations of each substance (0.1 nM, 0.33 nM, 1.1 nM, 3.8 nM, 13 nM, 44 nM, 0.15 μM, 0.51 μM, 1.7 μM, 5.9 μM and 20 μM) were analysed as duplicates on the same microtitre plate. For this purpose, 100-fold concentrated solutions in DMSO were prepared by serial dilutions (1:3.4) of a 2 mM stock solution into a clear, 384-well microtitre plate (Greiner Bio-One, Frickenhausen, Germany). From this, 50 n1 were transferred into a black test plate (Greiner Bio-One, Frickenhausen, Germany). The test was started by the addition of 2 μl of a 2.5-fold concentrated BRD4(1) solution (final concentration typically 10 nM in the 5 μl of reaction volume) in aqueous assay buffer [50 mM HEPES pH 7.5, 50 mM sodium chloride (NaCl), 0.25 mM CHAPS and 0.05% serum albumin (BSA)] to the substances in the test plate. This was followed by a 10-minute incubation step at 22° C. for the pre-equilibration of putative complexes between BRD4(1) and the substances.
The mixture was then incubated in the dark at 22° C. for one hour and then at 4° C. for at least 3 hours and for no longer than overnight. The formation of BRD4(1)/Ac-H4 complexes was determined by the measurement of the resonance energy transfer from the streptavidin-Eu cryptate to the anti-6His-XL665 antibody present in the reaction. For this purpose, the fluorescence emission was measured at 620 nm and 665 nm after excitation at 330-350 nm in a TR-FRET measuring instrument, for example a Rubystar or Pherastar (both from BMG Lab Technologies, Offenburg, Germany) or a Viewlux (Perkin-Elmer). The ratio of the emissions at 665 nm and at 622 nm was taken as an indicator of the amount of BRD4(1)/Ac-H4 complexes formed.
The data (ratios) obtained were normalized, with 0% inhibition corresponding to the mean from the measurements for a set of controls (typically 32 data points) in which all the reagents were present. In these, in place of test substances, 50 nl of DMSO (100%) were used Inhibition of 100% corresponded to the mean from the measurements for a set of controls (typically 32 data points) in which all the reagents except BRD4(1) were present. The IC50 was determined by regression analysis based on a 4-parameter equation (minimum, maximum, IC50, Hill; Y=Max+(Min−Max)/(1+(X/IC50)Hill).

[4] = 10 μM ATP (low ATP concentration), read-out: IC50 [Plk-1] (10 μM ATP)
[5] = 10 mM ATP (high ATP concentration), read-out: IC50 [Plk-1] (10 mM ATP)

| Compound | pIC50 [1] | pIC50 [2, 4] | pIC50 [2, 5] | pIC50 [3] |
| --- | --- | --- | --- | --- |
| CC[C@@H]1C(=O)N(C)c2cnc(Nc3ncc(C(=O)NCCOC)cc3OC)cc2N1C1CCCC1 [Example 8, 6-[[(2R)-1-Cyclopentyl-2-ethyl-1,2,3,4-tetrahydro-4-methyl-3-oxopyrido[3,4-b]pyrazin-7-yl]amino]-5-methoxy-N-(2-methoxyethyl)-3-pyridinecarboxamide] | 7.14 | 8.05 | 7.66 | 6.48 |
| CC[C@@H]1C(=O)N(C)c2cnc(Nc3ncc(C(=O)N[C@@H]4CCCCNC4=O)cc3OC)cc2N1C1CCCC1 [Example 16, 6-[[(2R)-1-Cyclopentyl-2-ethyl-1,2,3,4-tetrahydro-4-methyl-3-oxopyrido[3,4-b]pyrazin-7-yl]amino]-N-[(3R)-hexahydro-2-oxo-1H-azepin-3-yl]-5-methoxy-3-pyridinecarboxamide] | 7.11 |  | 7.66 | 6.28 |
| CC[C@@H]1C(=O)N(C)c2cnc(Nc3ncc(C(=O)N[C@@H]4CCCCNC4=O)cc3C)cc2N1C1CCCC1 [Example 15] | 7.11 | 7.89 | 7.66 | 6.30 |
| CC[C@@H]1C(=O)N(C)c2cnc(Nc3ncc(C(=O)NC4CCOCC4)cc3C)cc2N1C1CCCC1 [Example 17, 6-{[(2R)-1-Cyclopentyl-2-ethyl-4-methyl-3-oxo-1,2,3,4-tetrahydropyrido[3,4-b]pyrazin-7-yl]amino}-5-methyl-N-(tetrahydro-2H-pyran-4-yl)pyridine-3-carboxamide] | 7.26 | 8.10 | 7.85 | 6.27 |
| CC[C@@H]1C(=O)N(C)c2cnc(Nc3ncc(C(=O)NC4CC4)cc3C)cc2N1C1CCCC1 [Example 13, 6-{[(2R)-1-Cyclopentyl-2-ethyl-4-methyl-3-oxo-1,2,3,4-tetrahydropyrido[3,4-b]pyrazin-7-yl]amino}-N-cyclopropyl-5-methylpyridine-3-carboxamide] | 7.25 | 8.15 | 7.82 | 6.36 |
| CC[C@@H]1C(=O)N(C)c2cnc(Nc3ncc(C(=O)NC4CC4)cc3OC)cc2N1C1CCCC1 [Example 5, 6-[[(2R)-1-Cyclopentyl-2-ethyl-1,2,3,4-tetrahydro-4-methyl-3-oxopyrido[3,4-b]pyrazin-7-yl)amino]-N-cyclopropyl-5-methoxy-3-pyridinecarboxamide] | 7.54 | 8.15 | 7.68 | 6.65 |
| COc1cc(C(=O)NC2CC2)cnc1Nc1cc2c(cn1)N(C)C(=O)[C@@H](C)N2C1CCCC1 [Example 2, 6-{[(2R)-1-Cyclopentyl-2,4-dimethyl-3-oxo-1,2,3,4-tetrahydropyrido[3,4-b]pyrazin-7-yl]amino}-N-cyclopropyl-5-methoxypyridine-3-carboxamide] | 7.03 | 7.77 |  | 6.90 |
| CC[C@@H]1C(=O)N(C)c2cnc(Nc3ncc(C(=O)NCc4cccnc4)cc3OC)cc2N1C1CCCC1 [Example 12, 6-[[(2R)-1-Cyclopentyl-2-ethyl-1,2,3,4-tetrahydro-4-methyl-3-oxopyrido[3,4-b]pyrazin-7-yl]amino]-5-methoxy-N-(3-pyridinylmethyl)-3-pyridinecarboxamide] | 7.28 |  | 7.64 | 6.37 |
| COc1cc(C(=O)NC2CCN(C)CC2)cnc1Nc1cc2c(cn1)N(C)C(=O)C(C)N2C1CCCC1 (centres unmarked) [Example 6, 6-[(1-Cyclopentyl-2,4-dimethyl-3-oxo-1,2,3,4-tetrahydropyrido[3,4-b]pyrazin-7-yl)amino]-5-methoxy-N-(1-methylpiperidin-4-yl)pyridine-3-carboxamide] | 6.94 |  | 7.72 | 6.61 |
